Data from ChEMBL document CHEMBL2385046, “Dihydrooxazines As Inhibitors of BACE-1 or BACE-2” (ACS Med Chem Lett, 2013).

What was measured:
[1] = test system: Rattus norvegicus; assay: Antialzheimer activity in Sprague-Dawley rat assessed as lowering of amyloid beta level in CSF at 10 mg/kg, po after 4 hrs relative to vehicle-treated control; type: functional
[2] = test system: Rattus norvegicus; assay: Antialzheimer activity in Sprague-Dawley rat assessed as lowering of amyloid beta level in forebrain at 10 mg/kg, po after 4 hrs relative to vehicle-treated control; type: functional
[3] = biological target: Beta-secretase (BACE) (Homo sapiens, UniProt Q9Y5Z0+P56817); assay: Inhibition of BACE1/BACE2 (unknown origin) transfected in CHO cells assessed as release of amyloid beta (1 to 40) after 24 hrs by immunoassay; type: cell-based
[4] = biological target: T1, Beta-secretase 2 (Homo sapiens, UniProt Q9Y5Z0); assay: Inhibition of recombinant human BACE2 extracellular domain expressed in baculovirus using Q-C(HS03)-lle-Asp-Leu-Ala-Val-Leu-Asp-HN-CH2-CH2-Mca as substrate incubated for 1 hr measured every 1 min for 15 mins by fluorescence assay
T1 sequence (Q9Y5Z0 whole entry): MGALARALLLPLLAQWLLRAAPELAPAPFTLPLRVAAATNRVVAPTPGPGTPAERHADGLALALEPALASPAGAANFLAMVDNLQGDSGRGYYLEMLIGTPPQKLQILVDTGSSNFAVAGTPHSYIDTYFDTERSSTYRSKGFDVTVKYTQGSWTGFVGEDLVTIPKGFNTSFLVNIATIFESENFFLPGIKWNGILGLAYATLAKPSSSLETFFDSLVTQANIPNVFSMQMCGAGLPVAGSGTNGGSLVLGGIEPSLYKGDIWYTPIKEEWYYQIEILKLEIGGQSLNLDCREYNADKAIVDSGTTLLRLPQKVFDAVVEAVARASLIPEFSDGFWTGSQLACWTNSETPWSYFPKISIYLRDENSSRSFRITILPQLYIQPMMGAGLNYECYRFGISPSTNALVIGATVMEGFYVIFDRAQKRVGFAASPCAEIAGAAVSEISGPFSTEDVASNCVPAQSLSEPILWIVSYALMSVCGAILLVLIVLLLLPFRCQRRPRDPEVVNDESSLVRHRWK

[5] = biological target: Beta-secretase 1 (Homo sapiens, UniProt P56817); assay: Inhibition of recombinant human BACE1 extracellular domain expressed in baculovirus using Q-C(HS03)-lle-Asp-Leu-Ala-Val-Leu-Asp-HN-CH2-CH2-Mca as substrate incubated for 1 hr measured every 1 min for 15 mins by fluorescence assay
Sequence of Beta-secretase 1 (P56817 whole entry, the tested form may be a part): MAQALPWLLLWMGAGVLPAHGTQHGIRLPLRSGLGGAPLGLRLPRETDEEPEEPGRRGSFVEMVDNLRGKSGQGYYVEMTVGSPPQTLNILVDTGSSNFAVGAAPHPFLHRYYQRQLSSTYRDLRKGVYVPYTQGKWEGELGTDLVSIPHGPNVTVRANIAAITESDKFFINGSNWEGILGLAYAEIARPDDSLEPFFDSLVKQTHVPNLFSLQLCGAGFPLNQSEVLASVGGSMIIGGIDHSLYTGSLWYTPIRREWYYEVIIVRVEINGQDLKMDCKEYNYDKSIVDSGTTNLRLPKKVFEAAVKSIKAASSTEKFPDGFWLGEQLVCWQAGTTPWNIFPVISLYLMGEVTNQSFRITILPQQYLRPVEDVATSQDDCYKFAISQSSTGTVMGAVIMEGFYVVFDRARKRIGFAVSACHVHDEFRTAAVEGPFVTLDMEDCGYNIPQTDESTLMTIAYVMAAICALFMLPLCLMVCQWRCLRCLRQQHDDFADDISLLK

SMILES | Activity [1] [%] | Activity [2] [%] | IC50 [3] [nM] | IC50 [4] [nM] | IC50 [5] [nM]
C[C@]1(c2nc(NC(=O)c3ncc(C(F)(F)F)cc3Cl)ccc2F)N=C(N)OCC1(F)F | -67.9 | -63.6 | – | – | –
CC1(C)OC(N)=N[C@](C)(c2nc(NC(=O)c3ncc(C#N)cc3Cl)ccc2F)C1(F)F | -35.3 | -20 | – | – | –
C[C@]1(c2nc(NC(=O)c3ncc(C#N)cc3Cl)ccc2F)N=C(N)OCC1(F)F | -70.7 | -67.1 | 8 | – | –
C[C@]1(c2nc(NC(=O)c3ncc(Cl)cc3Cl)ccc2F)N=C(N)OCC1(F)F | – | – | 12 | – | –
C[C@]1(c2nc(NC(=O)c3nn(C(F)F)cc3Cl)ccc2F)N=C(N)OCC1(F)F | -55.2 | -46.6 | 13 | – | –
C[C@]1(c2nc(NC(=O)c3ccc(C#N)cn3)ccc2F)N=C(N)OCC1(F)F | – | – | 7 | 66 | 12
C[C@]1(c2nc(NC(=O)c3ncc(OCC(F)F)nc3N)ccc2F)N=C(N)OCC1(F)F | – | – | 440 | – | –
